Measurements from patent US9732067B2, “Compounds and methods for activating the apoptotic arm of the unfolded protein response” (University of Kansas, priority 2012, dated 2017).
“And” between values parts separate entries of the source, which are not always exact repeats. Identical values can stand only once. Like-named read-outs stand apart in the source and are kept apart here.

Key:
[1] = system: IRE1/XBP1 (adaptive) UPR sub-pathway; experiment: UPR XBP1 assay (CHO-XBP1-luciferase reporter cell line); assay type: cell-based
Procedure: A high-throughput screen of the NIH Molecular Libraries Small Molecule Repository (MLSMR) of >350,000 compounds was carried out using complementary cell-based reporter assays using stably transfected CHO-K1 cells that specifically identify activators of the PERK/eIF2α/CHOP (apoptotic), or the IRE1/XBP1 (adaptive) UPR sub-pathways.
The liquid samples were first confirmed at a single-point concentration of 10 μM in the […]. Of the liquid samples, 674 compounds were confirmed to have at least 32% activity at a 10 μM assay concentration. The confirmed compounds were further tested in dose response in the UPR-CHOP primary assay to obtain EC50 values. In addition, confirmed compounds were also dosed out in the CHO-XBP1-luciferase reporter cell line to identify compounds that were selective for the CHOP apoptotic over the adaptive XBP1 pathway.
The high throughput screening effort and subsequent validation produced two chemotypes, which were further explored by SAR analysis for potency, selectivity, the absence of reactive functionality, synthetic accessibility, physiochemical properties, and hit rate in unrelated PUBCHEM assays. SAR testing of re-constituted powders encompassed dose response testing of compounds in two assays: UPR-CHOP and UPR-XBP1 assays.

MEF with wild-type CHOP = experiment: Proliferation / cytotoxicity (ATPLite) in MEF with wild-type CHOP; assay type: cell-based, mouse
Procedure: (§1) Several of the analogs derived from these changes were evaluated in secondary assays as they met the preliminary probe criteria for UPR-CHOP and UPR-XBP1 activity. Select compounds were assessed in a dose response manner for the ability to suppress proliferation in both the CHOP wild-type and CHOP knockout murine embryonic fibroblasts (−/− MEF KO CHOP)(Table 2).
(§2) It was determined whether ML291 and ML291 congeners would induce cell death (cytotoxicity as measured by ATPLite®, which measures production of ATP from living cells) in cells where these pathways are operant, but not activate them in the absence of the pathways.

−/− MEF KO CHOP = experiment: Proliferation / cytotoxicity (ATPLite) in MEF with CHOP KO; assay type: cell-based; details: Mus musculus
Procedure: as §1, §2

[2] = Aqueous solubility in pION's buffer; assay type: physicochemical
Source text: Solubility was highest at the physiological of pH 7.4.

[3] = Plasma protein binding, human; assay type: in vitro ADME
Source text: Plasma protein binding is a measure of a drug's efficiency to bind to the proteins within blood plasma. The less bound a drug is, the more efficiently it can traverse cell membranes or diffuse. Highly plasma protein bound drugs are confined to the vascular space, thereby having a relatively low volume of distribution. In contrast, drugs that remain largely unbound in plasma are generally available for distribution to other organs and tissues. ML291 was highly plasma protein bound to human plasma proteins (>99%), though it is somewhat less tightly bound to mouse plasma proteins (˜84%).

Plasma stability, human = assay type: in vitro ADME
Source text: Plasma stability is a measure of the stability of small molecules and peptides in plasma and is an important parameter, which strongly can influence the in vivo efficacy of a test compound. Drug candidates are exposed in plasma to enzymatic processes (proteinases, esterases), and they can undergo intramolecular rearrangement or bind irreversibly (covalently) to proteins. ML291 appeared to be moderately stable in human plasma (˜84% remaining), but less so in mouse plasma (˜52% remaining).

[4] = Hepatic microsome stability, human; assay type: in vitro ADME
Source text: (§3) The microsomal stability assay is commonly used to rank compounds according to their metabolic stability. This assay addresses the pharmacologic question of how long the parent compound will remain circulating in plasma within the body.

[5] = Hepatic microsome stability, mouse; assay type: in vitro ADME
Source text: as §3

[6] = molecular target: T1, dopamine transporter (DAT) (Homo sapiens, UniProt Q01959); experiment: Radio-ligand binding panel (Ricerca), 67 GPCRs, ion channels and transporters
T1 construct: Ricerca Biosciences LLC (Bothell, Wash.)
T1 sequence (Q01959 whole entry, species assumed): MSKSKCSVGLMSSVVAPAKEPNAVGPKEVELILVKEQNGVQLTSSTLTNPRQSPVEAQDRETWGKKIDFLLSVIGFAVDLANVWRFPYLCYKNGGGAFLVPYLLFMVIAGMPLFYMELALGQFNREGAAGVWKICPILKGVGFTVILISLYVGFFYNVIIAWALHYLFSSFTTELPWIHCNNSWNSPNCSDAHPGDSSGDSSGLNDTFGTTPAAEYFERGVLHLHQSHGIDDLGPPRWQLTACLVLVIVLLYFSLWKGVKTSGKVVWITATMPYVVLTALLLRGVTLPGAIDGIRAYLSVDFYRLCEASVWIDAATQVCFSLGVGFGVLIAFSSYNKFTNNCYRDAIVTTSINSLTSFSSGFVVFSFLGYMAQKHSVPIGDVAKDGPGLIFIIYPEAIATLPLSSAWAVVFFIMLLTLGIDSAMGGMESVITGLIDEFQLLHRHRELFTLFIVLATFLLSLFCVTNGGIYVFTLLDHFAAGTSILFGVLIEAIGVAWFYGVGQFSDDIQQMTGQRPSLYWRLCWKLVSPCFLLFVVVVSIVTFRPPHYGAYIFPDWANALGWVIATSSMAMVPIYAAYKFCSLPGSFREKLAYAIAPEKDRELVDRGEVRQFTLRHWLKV
Procedure: ML291 was submitted to Ricerca Biosciences LLC (Bothell, Wash.) to evaluate it in radio-ligand binding assays to determine activity against a panel of 67 GPCRs, ion channels and transporters at 10 μM.

RMG-1 (ovarian) = experiment: Proliferation, RMG-1; assay type: cell-based; details: 24 hours
Procedure: To determine whether ML291 could reduce the proliferation of malignant cells, a panel of OSCC (UMSCC23, A253, HN6, HN12, HN30, H460/T800) and ovarian cancer (RMG-1, TOV112D, A2780 and SKOV3) cell lines, were treated with increasing doses (0.15-20 μM) of ML291 for 24 hours (FIGS. 3A and 3B).

[7] = Stability in PBS at room temperature; assay type: physicochemical; details: 48 hours, 23° C.
Procedure: Stability was measured under two distinct conditions with ML291: at room temperature (23° C.) in PBS (no antioxidants or other protectants and DMSO concentration below 0.1%) and with 50% acetonitrile added to account for challenges with solubility of the compound in PBS alone. Stability was determined as the loss of compound with time over a 48 hour period with a minimum of 6 time points.

O=C(Nc1ccc(S(=O)(=O)N2CCC(Cl)CC2)cc1)c1ccc([N+](=O)[O-])o1 [ML291, N-(4-((4-chloropiperidin-1-yl)sulfonyl)phenyl)-5-nitrofuran-2-carboxamide]
EC50 ([1]; Table 1, mean of replicates, AID602416, read-out: UPR XBP1 Assay Potency EC50): > 80 µM | EC50 ([1]; Table 9, average of four runs, F12 HAMs, 10% hi-FBS, read-out: EC50 UPR XBP1 Assay): > 80 µM | EC50 ([1]; read-out: XBP1 EC50): > 80 µM | shift of potency in MEF wild-type CHOP versus CHO-K1 cell reporter assays (MEF with wild-type CHOP): ~6 fold | EC50 (MEF with wild-type CHOP; Mus musculus, Table 2, mean of replicates, EC50 and μM, read-out: Proliferation MEF wt CHOP): 4.77 ± 1.05 µM | IC50 (MEF with wild-type CHOP; Mus musculus, Table 5, MEF, ATPLite): 4.77 ± 1.05 µM | EC50 (MEF with wild-type CHOP; Mus musculus, read-out: CHOP wild-type EC50 (MEF)): 4.77 µM | EC50 (MEF with wild-type CHOP; read-out: CHOP wild-type EC50 (MEF)): ~4.8 µM | EC50 (−/− MEF KO CHOP; Table 2, mean of replicates, EC50 and μM, read-out: Proliferation −/− MEF KO CHOP): > 20 µM | IC50 (−/− MEF KO CHOP; Table 5, MEF, ATPLite): > 20 µM | EC50 (−/− MEF KO CHOP; read-out: EC50 on −/− MEF knockout cells): > 20 µM | solubility over its EC50 ([2]; EC50 762 nM): 11-13 fold | solubility ([2]; aqueous buffer (pION's buffer), aqueous buffer, pH range of 5.2-7.4, read-out: solubility in aqueous buffers): 8.7 µM to 9.7 µM and 3.6 µg/mL to 4 µg/mL | Aqueous Solubility in pION's buffer ([2]; pH 5.0): 3.6 μg/mL and 8.7 μM | Aqueous Solubility in pION's buffer ([2]; pH 6.2): 3.8 μg/mL and 9.2 μM | Aqueous Solubility in pION's buffer ([2]; pH 7.4): 4.0 μg/mL and 9.7 μM | bound to human plasma proteins [3]: > 99% | fraction unbound at 1 µM ([3]; plasma, Human, 1 μM, read-out: Plasma Protein Binding (% Bound) (converted)): 0.0025 | fraction unbound at 10 µM ([3]; plasma, Human, 10 μM, read-out: Plasma Protein Binding (% Bound) (converted)): 0.0037 | remaining in human plasma (Plasma stability, human): ~84% | Plasma Stability (% Remaining at 3 hours @ 37° C.) (Plasma stability, human; Human): 85.58% | Hepatic Microsome Stability (% Remaining after 1 hour @ 37° C.) ([4]; Human): 0.49% | metabolism in human liver homogenates ([4]; within 1 hour): almost completely metabolized | Hepatic Microsome Stability (% Remaining after 1 hour @ 37° C.) ([5]; Mouse): 0.02% | metabolism in mouse liver homogenates ([5]; within 1 hour): almost completely metabolized | inhibition at 10 µM [6]: 68% | IC50 (RMG-1 (ovarian)): > 20 µM | percent remaining compound in PBS with 50% acetonitrile [7]: 100% | percent remaining compound in PBS ([7]; no additives): 11.44%
